Literature values in US9554577B2, “Herbicidal formulation” (priority 2011, dated 2017).

Key:
[1] = chlorinated hydrocarbons and aromatic solvents such as methylene chloride, acetone and xylene

CCC(CC)Nc1c([N+](=O)[O-])cc(C)c(C)c1[N+](=O)[O-] [Pendimethalin, n-(1-ethylpropyl)-3,4-dimethyl-2,6-dinitrobenzenamine]
stability under acidic and alkaline conditions: stable
solubility in organic solvents [1]: soluble
